In patent US5013542A, “Method to inhibit adhesion of disease-causing microorganisms to teeth” (Forsyth Dental Infirmary for Children, priority 1988, dated 1991):
Where no end group is shown, it is not given here.

Key:
Assay in all cases: Adhesion of radioactively labeled bacteria to treated hydroxyapatite (HA)
Format in all cases: cell-based
Actinomyces viscosus = system: Actinomyces viscosus
Experimental: (§1) PRP-1 and PRP-1(Tl) were investigated for their abilities to promote adhesion of bacteria to HA. Essentially, the method is to treat HA samples with nothing (negative control), saliva (positive control), or the respective proteins or peptides. The excess agent is removed by washing, and suspensions of radioactively labeled bacteria are added to the treated HA. After a suitable time, the excess bacteria are removed by washing and those remaining adsorbed to the HA are counted in a scintillation counter. In the table of results, bacterial adsorption to saliva-treated HA is considered to be 100%, and adsorption to PRP-1 or PRP-1(Tl)-treated HA expressed as a percentage of this reference value. This approach is necessary because of the diverse behaviors of different bacteria.

Bacteroides gingivalis = system: Bacteroides gingivalis
Experimental: as §1

Streptococcus mitis = system: Streptococcus mitis
Experimental: as §1

Streptococcus mutans = system: Streptococcus mutans
Experimental: as §1

Streptococcus sanguis = system: Streptococcus sanguis
Experimental: as §1

[1] = HA treated with the protein/peptide, saliva-treated HA = 100%

PRP-1(T1): residues 1-30, highly acidic phosphoserine-containing amino-terminal segment of PRP-1 obtained by tryptic digestion at ARG(30) (QDLDEDVSQEDVPLVISDGGDSEQFIDEER; also: phosphoserine-containing, positions not given here; UniProt P02810 17-46, looked up, fragment)
PERCENT ADHESION COMPARED TO SALIVA-TREATED HA (Actinomyces viscosus; [1]): 17% | adhesion of organism to treated HA (in words) (Actinomyces viscosus; versus saliva-treated HA): significantly and profoundly depressed | adhesion of organism to treated HA (in words) (Bacteroides gingivalis; B. gingivalis, versus saliva-treated HA): significantly and profoundly depressed | PERCENT ADHESION COMPARED TO SALIVA-TREATED HA (Bacteroides gingivalis; Bacteroides gingivalis, HA treated with the protein/peptide, saliva-treated HA = 100%): 20% | PERCENT ADHESION COMPARED TO SALIVA-TREATED HA (Streptococcus mitis; [1]): 26% | adhesion of organism to treated HA (in words) (Streptococcus mitis; versus saliva-treated HA): significantly and profoundly depressed | PERCENT ADHESION COMPARED TO SALIVA-TREATED HA (Streptococcus mutans; [1]): 17% | adhesion of organism to treated HA (in words) (Streptococcus mutans; versus saliva-treated HA): significantly and profoundly depressed | adhesion of organism to treated HA (in words) (Streptococcus sanguis; S. sanguis, versus saliva-treated HA): significantly and profoundly depressed | PERCENT ADHESION COMPARED TO SALIVA-TREATED HA (Streptococcus sanguis; Streptococcus sanguis, HA treated with the protein/peptide, saliva-treated HA = 100%): 4%
